Source: ChEMBL document CHEMBL1201862, “PubChem BioAssay data set” (2004)
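Growth conditions: 96-well plates. Treatment: test compound, 48 hours, 5 concentrations. Analysis: linear interpolation between bracketing concentrations; unreached endpoints set to highest concentration. GI50: concentration for 50% inhibition of growth.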 Calls of active or inactive are those of the source. Cut-off read from the data, not from the text of the source: active = GI50 up to about 1.1 µM and inactive = higher.

Legend:
Test in all cases: NCI-60 cell line screen, 48 h
[1] = test system: SK-MEL-5
[2] = test system: SNB-75
[3] = test system: LXFL 529
[4] = test system: NCI-H226
[5] = test system: M14
[6] = test system: SNB-19
[7] = test system: K562
[8] = test system: 786-0
[9] = test system: U-251
[10] = test system: SNB-78
[11] = test system: SK-MEL-28
[12] = test system: NCI/ADR-RES
[13] = test system: RXF 393
[14] = test system: M19-MEL
[15] = test system: Hs-578T
[16] = test system: HOP-62
[17] = test system: OVCAR-5
[18] = test system: CAKI-1
[19] = test system: DU-145
[20] = test system: MDA-MB-435
[21] = test system: SF-539
[22] = test system: NCI-H460
[23] = test system: XF498
[24] = test system: PC-3
[25] = test system: IGROV-1
[26] = test system: NCI-H23
[27] = test system: CCRF-CEM
[28] = test system: OVCAR-4
[29] = test system: DMS-114
[30] = test system: UACC-62
[31] = test system: SW-620
[32] = test system: HT-29
[33] = test system: NCI-H522
[34] = test system: OVCAR-8
[35] = test system: UACC-257
[36] = test system: TK-10
[37] = test system: LOX IMVI
[38] = test system: SK-MEL-2
[39] = test system: SF-295
[40] = test system: KM-20L2
[41] = test system: Malme-3M
[42] = test system: DMS-273
[43] = test system: HCC 2998
[44] = test system: DLD-1
[45] = test system: SR
[46] = test system: A498
[47] = test system: EKVX
[48] = test system: SK-OV-3
[49] = test system: UO-31
[50] = test system: SN12C
[51] = test system: BT-549
[52] = test system: MOLT-4
[53] = test system: RXF 631
[54] = test system: T47D
[55] = test system: HCT-116
[56] = test system: MCF7
[57] = test system: MDA-MB-231
[58] = test system: ACHN
[59] = test system: OVCAR-3
[60] = test system: HL-60
[61] = test system: HOP-18
[62] = test system: A549
[63] = test system: COLO 205
[64] = test system: RPMI-8226
[65] = test system: HCT-15
[66] = test system: HOP-92
[67] = test system: SF-268

Structure (SMILES): CCC1(O)C(=O)OCc2c1cc1n(c2=O)Cc2cc3cc4c(cc3nc2-1)OCO4 (configuration not stated)
- GI50 [1]: < 10 nM (active)
- GI50 [2]: < 10 nM (active)
- GI50 [3]: 61.7 nM (active)
- GI50 [4]: < 10 nM (active)
- GI50 [5]: < 10 nM (active)
- GI50 [6]: < 10 nM (active)
- GI50 [7]: 14.2 nM (active)
- GI50 [8]: < 10 nM (active)
- GI50 [9]: < 10 nM (active)
- GI50 [10]: 3370 nM (inactive)
- GI50 [11]: 112 nM (active)
- GI50 [12]: < 10 nM (active)
- GI50 [13]: < 10 nM (active)
- GI50 [14]: < 10 nM (active)
- GI50 [15]: 857 nM (active)
- GI50 [16]: < 10 nM (active)
- GI50 [17]: 32.7 nM (active)
- GI50 [18]: < 10 nM (active)
- GI50 [19]: < 10 nM (active)
- GI50 [20]: < 13.1 nM (active)
- GI50 [21]: 31.6 nM (active)
- GI50 [22]: < 10 nM (active)
- GI50 [23]: < 18.5 nM (active)
- GI50 [24]: 204 nM (active)
- GI50 [25]: 27.6 nM (active)
- GI50 [26]: < 10 nM (active)
- GI50 [27]: < 10 nM (active)
- GI50 [28]: 55.1 nM (active)
- GI50 [29]: < 10 nM (active)
- GI50 [30]: < 10 nM (active)
- GI50 [31]: < 11.5 nM (active)
- GI50 [32]: 11.3 nM (active)
- GI50 [33]: < 10 nM (active)
- GI50 [34]: < 10 nM (active)
- GI50 [35]: 24.2 nM (active)
- GI50 [36]: 310 nM (active)
- GI50 [37]: < 10 nM (active)
- GI50 [38]: 127 nM (active)
- GI50 [39]: < 10 nM (active)
- GI50 [40]: 13.7 nM (active)
- GI50 [41]: 16.4 nM (active)
- GI50 [42]: < 10 nM (active)
- GI50 [43]: 23.3 nM (active)
- GI50 [44]: 75.9 nM (active)
- GI50 [45]: < 215 nM (active)
- GI50 [46]: < 10.3 nM (active)
- GI50 [47]: 77.6 nM (active)
- GI50 [48]: 10.2 nM (active)
- GI50 [49]: < 11.1 nM (active)
- GI50 [50]: < 10 nM (active)
- GI50 [51]: 16.3 nM (active)
- GI50 [52]: < 10 nM (active)
- GI50 [53]: 17.6 nM (active)
- GI50 [54]: < 10 nM (active)
- GI50 [55]: < 10 nM (active)
- GI50 [56]: < 10 nM (active)
- GI50 [57]: 346 nM (active)
- GI50 [58]: < 10 nM (active)
- GI50 [59]: 46.6 nM (active)
- GI50 [60]: < 10 nM (active)
- GI50 [61]: < 10 nM (active)
- GI50 [62]: < 10 nM (active)
- GI50 [63]: 71.3 nM (active)
- GI50 [64]: 23.6 nM (active)
- GI50 [65]: 30.6 nM
- GI50 [66]: 19.1 nM (active)
- GI50 [67]: < 36.3 nM (active)
